In brackets after ≈: the same amount, converted by molar mass. Square brackets hold non-standard residues; d marks the D form. Primed or numbered codes have the meaning given here. Side chains are listed from the residue outwards. Ends that are not written are not given here. triazole = not defined here; Hpg′ = not defined here
Tests used:
E. faecium [1] = assay type: cell-based, Enterococcus faecium; conditions: for decrease in zone of inhibition (activity) on Hpg labeling: 30 μL of 1 mg/mL in 8 mm wells, zone area minus well area, 3 experiments
Procedure: 2 Production of single-Met containing nisin and nisin variants labeled with Met, Hpg or Hpg–Glc and their antibacterial activity against E. faecium strain. (a) Quantification of fully modified nisin variants labeled with Met or Hpg using HPLC as per Schmitt et al. (b) Evaluation of the antimicrobial efficacy of nisin and its variants against E. faecium through agar well diffusion assay. Each trial was repeated 3 times. The relative activity was determined by measuring inhibition zone diameters in millimeters, calculated as the area of the zone (πr ^2) minus the area of the well (πr ^2) in millimeters.
An overnight culture was added at a concentration of 0.1% (v/v) to molten GM17 agar (for E. faecium and E. faecalis) or LB agar (for S. aureus and B. cereus) at 45 °C, and then 30 mL of this mixture was poured onto a plate. After the agar solidified, wells of 8 mm were created by punching in the agar and filled with 30 μL of a 1 mg/mL lantibiotic solution. If needed, lantibiotics were activated by adding 3 μL of 1 mg/mL NisP directly to the well. The quantity of nisin was determined using HPLC as previously outlined. The agar plate was then incubated at 37 °C overnight, and the zones of inhibition were measured. The presented data results from three independent experiments. Zone diameters were measured in millimeters and recorded as the area of the zone (πr ^2) minus the area of the well (πr ^2) in millimeters.

[2] = test system: various Gram-positive bacteria; conditions: ref citation numbers not given; cited from earlier work
Description: Recently, we introduced the Met analog Aha at position 17 and used click chemistry to ...

E. faecium [3] = assay: Time-kill assay; assay type: cell-based, Enterococcus faecium; conditions: 5-fold MIC against E. faecium
Procedure: The antimicrobial effectiveness of nisin, nisin(1–22), and nisin(M21V)–Gal was assessed using a method previously described by Guo et al. , In summary, an overnight culture of E. faecium was diluted 50 times in GM17 medium and cultured at 37 °C. The bacteria were grown until reaching an optical density at 600 nm (OD600) of 0.5, and then the cell concentration was adjusted to 5 × 10^5 colony-forming units per milliliter (CFU/mL). Following this, the bacteria were exposed to a 5-fold MIC of each peptide. An untreated cell suspension was used as a control. At specific time intervals, 50 μL samples were taken, and both undiluted and 10-fold serially diluted suspensions were plated on GM17 agar. The plates were then incubated overnight at 37 °C, and the resulting colonies were counted and expressed as CFU/mL. Each experiment was conducted in triplicate.

[4] = test system: Listeria monocytogenes LMG10470; assay: MIC, broth microdilution; assay type: cell-based; conditions: inoculum ~5 × 10^5 CFU/mL, overnight 37 °C, HPLC-purified peptides
Procedure: (§1) The minimal inhibitory concentration (MIC) values were assessed through broth microdilution following standard guidelines. The inoculum was adjusted to around 5 × 10^5 CFU/mL. MIC was characterized as the lowest concentration of the antimicrobial substance at which no visible growth was observed following overnight incubation at 37 °C.

Bacillus cereus CH-85 = assay: MIC, broth microdilution; assay type: cell-based; conditions: inoculum ~5 × 10^5 CFU/mL, overnight 37 °C, HPLC-purified peptides
Procedure: as §1

[5] = test system: Staphylococcus aureus LMG15975 (MRSA); assay type: cell-based; conditions: broth microdilution, inoculum ~5 × 10^5 CFU/mL, overnight 37 °C, HPLC-purified peptides
Procedure: as §1

[6] = test system: Enterococcus faecium LMG16003 (VRE); assay type: cell-based; conditions: broth microdilution, inoculum ~5 × 10^5 CFU/mL, overnight 37 °C, HPLC-purified peptides
Procedure: as §1

[7] = compared to the same peptide labeled with Met

## C#CCC[C@H](NC(=O)[C@@H]1CS[C@@H](C)[C@@H](NC(=O)[C@@H](NC(=O)[C@@H]2CS[C@@H](C)[C@@H](NC(=O)[C@@H]3CSC[C@@H](NC(=O)/C(=C/C)NC(=O)[C@@H](N)[C@@H](C)CC)C(=O)N[C@@H]([C@@H](C)CC)C(=O)NC(=C)C(=O)N[C@@H](CC(C)C)C(=O)N3)C(=O)N[C@@H](C)C(=O)NCC(=O)N2)[C@@H](C)CC)C(=O)NCC(=O)N[C@@H](C(C)C)C(=O)N[C@@H]([C@@H](C)CC)C(=O)N[C@@H]([C@@H](C)CC)C(=O)N/C(=C\C)C(=O)N1)C(=O)N[C@@H]1CSC[C@@H](C(=O)N[C@@H](CCCCN)C(=O)O)NC(=O)CNC(=O)[C@H](CC(N)=O)NC1=O [rombocin(M17I)(Hpg)]
E. faecium [1]; [7]
  decrease in zone of inhibition (activity) on Hpg labeling: 49%

## nisin(M17I): single-Met nisin mutant M17I, labeled with Met (ITSISLCTPGCKTGALIGCNMKTATCHCSIHVSK; not fully specified (some residues, bridges); cysteine pairing not given here; also: lantibiotic nisin-A, labeled with Met; UniProt P13068 24-57, looked up, variant M17I)
[2]
  influence of M17 mutation on antimicrobial activity: reduced activity

## nisin(1–22): truncated variant of nisin, bacteriostatic control that only binds lipid II (ITSISLCTPGCKTGALMGCNMK; cysteine pairing not given here; also: lantibiotic nisin-A; UniProt P13068 24-45, looked up, fragment) [reference compound]
E. faecium [3]
  bacteriostatic or bactericidal nature: bacteriostatic effect

## nisin(M17I)–Glc (ITSISLCTPGCKTGALIGCN[Hpg′]([triazole-2‑deoxy‑D‑glucose])KTATCHCSIHVSK; not fully specified (some residues, bridges); reading uncertain; also: nisin-A lantibiotic thioether rings and dehydro residues, not placed; UniProt P13068 24-57, looked up, variant M17I)
E. faecium [1]; compared to the Hpg-labeled peptide, agar well diffusion
  decrease of activity after glucose attachment: 15%
E. faecium [1]; compared to the same peptide labeled with Met, agar well diffusion
  decrease of activity of the glucose conjugate: 41%

## M17W: literature nisin mutant with M17W mutation (ITSISLCTPGCKTGALWGCNMKTATCHCSIHVSK; cysteine pairing not given here; also: lantibiotic nisin-A; UniProt P13068 24-57, looked up, variant M17W) [reference compound]
[2]
  influence of M17 mutation on antimicrobial activity: reduced activity

## C#CCC[C@H](NC(=O)[C@H](CC(N)=O)NC(=O)[C@@H]1CS[C@@H](C)[C@@H](NC(=O)[C@H](CCCCN)NC(=O)[C@@H]2CS[C@@H](C)[C@@H](NC(=O)[C@@H]3CSC[C@@H](NC(=O)/C(=C/C)NC(=O)[C@@H](N)[C@@H](C)CC)C(=O)N[C@@H]([C@@H](C)CC)C(=O)NC(=C)C(=O)N[C@@H](CC(C)C)C(=O)N3)C(=O)N3CCC[C@H]3C(=O)NCC(=O)N2)C(=O)NCC(=O)N[C@@H](C)C(=O)N[C@@H](CC(C)C)C(=O)N[C@@H]([C@@H](C)CC)C(=O)NCC(=O)N1)C(=O)N[C@@H](CCCCN)C(=O)N[C@H]1C(=O)N[C@@H](C)C(=O)N[C@H]2C(=O)N[C@@H](CS[C@H]1C)C(=O)N[C@@H](Cc1c[nH]cn1)C(=O)N[C@H](C(=O)N[C@@H](CO)C(=O)N[C@H](C(=O)N[C@@H](Cc1c[nH]cn1)C(=O)N[C@H](C(=O)NC(=C)C(=O)N[C@@H](CCCCN)C(=O)O)C(C)C)[C@@H](C)CC)CS[C@H]2C [nisin(M17I)(Hpg)]
[4]
  MIC: 121.5 µg/mL (≈ 36.7 µM)
Bacillus cereus CH-85
  MIC: 121.5 µg/mL (≈ 36.7 µM)
E. faecium [1]; [7]
  decrease in zone of inhibition (activity) on Hpg labeling: 30%
[5]
  MIC: 30.4 µg/mL (≈ 9.17 µM)
[6]
  MIC: 15.2 µg/mL (≈ 4.59 µM)

## C#CCC[C@@H]1NC(=O)[C@H](CC(C)C)NC(=O)[C@H](C)NC(=O)CNC(=O)[C@H](NC(=O)[C@H](CCCCN)NC(=O)[C@@H]2CS[C@@H](C)[C@@H](NC(=O)[C@@H]3CSC[C@@H](NC(=O)/C(=C/C)NC(=O)[C@@H](N)[C@@H](C)CC)C(=O)N[C@@H]([C@@H](C)CC)C(=O)NC(=C)C(=O)N[C@@H](CC(C)C)C(=O)N3)C(=O)N3CCC[C@H]3C(=O)NCC(=O)N2)[C@H](C)SC[C@@H](C(=O)N[C@@H](CC(N)=O)C(=O)N[C@H](C(=O)N[C@@H](CCCCN)C(=O)N[C@H]2C(=O)N[C@@H](C)C(=O)N[C@H]3C(=O)N[C@@H](CS[C@H]2C)C(=O)N[C@@H](Cc2c[nH]cn2)C(=O)N[C@H](C(=O)N[C@@H](CO)C(=O)N[C@H](C(=O)N[C@@H](Cc2c[nH]cn2)C(=O)N[C@H](C(=O)NC(=C)C(=O)N[C@@H](CCCCN)C(=O)O)C(C)C)[C@@H](C)CC)CS[C@H]3C)C(C)C)NC(=O)CNC1=O [nisin(M21V)(Hpg)]
[4]
  MIC: 30.4 µg/mL (≈ 9.21 µM)
Bacillus cereus CH-85
  MIC: 30.4 µg/mL (≈ 9.21 µM)
E. faecium [1]; [7]
  decrease in zone of inhibition (activity) on Hpg labeling: 17%
[5]
  MIC: 15.2 µg/mL (≈ 4.61 µM)
[6]
  MIC: 7.6 µg/mL (≈ 2.3 µM)

## C#CCC[C@@H]1NC(=O)[C@H]([C@@H](C)CC)NC(=O)[C@H](C(C)C)NC(=O)CNC(=O)[C@H](NC(=O)[C@@H](NC(=O)[C@@H]2CS[C@@H](C)[C@@H](NC(=O)[C@@H]3CSC[C@@H](NC(=O)/C(=C/C)NC(=O)[C@@H](N)[C@@H](C)CC)C(=O)N[C@@H]([C@@H](C)CC)C(=O)NC(=C)C(=O)N[C@@H](CC(C)C)C(=O)N3)C(=O)N[C@@H](C)C(=O)NCC(=O)N2)[C@@H](C)CC)[C@H](C)SC[C@@H](C(=O)N[C@H](C(=O)N[C@@H]2CSC[C@@H](C(=O)N[C@@H](CCCCN)C(=O)O)NC(=O)CNC(=O)[C@H](CC(N)=O)NC2=O)C(C)C)NC(=O)/C(=C/C)NC1=O [rombocin(M20V)(Hpg)]
E. faecium [1]; [7]
  decrease in zone of inhibition (activity) on Hpg labeling: 13%

## nisin(M21V): single-Met nisin mutant M21V, labeled with Met (ITSISLCTPGCKTGALMGCNVKTATCHCSIHVSK; not fully specified (some residues, bridges); cysteine pairing not given here; also: lantibiotic nisin-A, labeled with Met; UniProt P13068 24-57, looked up, variant M21V)
E. faecium [1]; agar well diffusion, 30 μL of 1 mg/mL
  antibacterial activity in words: highest antibacterial activity

Reference: publication PMC12455637, “Functionalizing Nisin with a Sugar Moiety Improves Its Solubility and Results in an Altered Antibacterial Spectrum and Mode of Action” (ACS Synthetic Biology, 2025)
